Assay results taken from patent US20110183991A1, “5HT7 RECEPTOR LIGANDS AND COMPOSITIONS COMPRISING THE SAME” (LABORATORIOS DEL DR. ESTEVE, S.A., priority 2008, published 2011).
pEC50: −log10 of the molar value.

Legend:
[1] = target: T1, Cloned Human Serotonin Receptor, Subtype 7 (h5HT7), expressed in CHO cells (Homo sapiens, UniProt P34969); assay: Radioligand binding assay, [125I]LSD, cloned human 5HT7 receptor on Flashplate
T1 construct: purchased PerkinElmer 6120512; host or cells: CHO cells
Experimental: The protocol assay was essentially the recommended protocol in the Technical Data Sheet by PerkinEmer Life and Analytical Sciences. The Mass membrane protein/well was typically 12 μg and the Receptor/well was about 9-10 fmoles. The Flashplate were let equilibrate at room temperature for one hour before the addition of the components of the assay mixture. The binding buffer was: 50 mM Tris-HCl, pH 7.4, containing 10 mM MgCl2, 0.5 mM EDTA and 0.5% BSA. […] Nonspecific binding was determined with 50 μM of Clozapine. The assay volume was 25 μl. TopSeal-A were applied onto Flashplate microplates and they were incubated at room temperature for 240 minutes in darkness.

[2] = target: 5HT7 receptor (Homo sapiens, UniProt P34969); assay: 5HT7 agonist functionality (EC50 agonist); type: cell-based; conditions: screening data, agonist reference hit
5HT7 receptor, sequence (P34969 whole entry): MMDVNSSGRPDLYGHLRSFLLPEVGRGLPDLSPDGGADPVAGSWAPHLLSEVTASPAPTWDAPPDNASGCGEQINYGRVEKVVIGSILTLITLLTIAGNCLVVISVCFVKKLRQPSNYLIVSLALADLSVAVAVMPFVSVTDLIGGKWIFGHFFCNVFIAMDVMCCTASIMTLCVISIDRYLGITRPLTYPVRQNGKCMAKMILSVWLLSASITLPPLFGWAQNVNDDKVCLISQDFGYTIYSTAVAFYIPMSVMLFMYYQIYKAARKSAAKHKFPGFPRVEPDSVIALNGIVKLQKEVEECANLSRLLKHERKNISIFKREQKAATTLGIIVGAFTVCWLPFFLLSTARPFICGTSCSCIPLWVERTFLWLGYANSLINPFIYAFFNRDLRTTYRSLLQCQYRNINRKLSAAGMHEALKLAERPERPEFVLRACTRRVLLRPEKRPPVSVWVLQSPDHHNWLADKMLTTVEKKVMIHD

T1 sequence (P34969 whole entry): as above

Row | Structure (SMILES) | affinity for the 5HT7 receptor (in words) [1] | pEC50 [2]
1 | COc1ccc(C(C)C)cc1CN1CCN(c2cccc3[nH]ccc23)CC1 [Ex 29, 4-(4-(5-isopropyl-2-methoxybenzyl)piperazin-1-yl)-1H-indole] | good affinity | 8.18
2 | O=C(c1cccs1)C1CN2CCC1CC2 (stereo not drawn) [l, quinuclidin-3-yl(thiophen-2-yl)methanone] | good affinity | 
